# Publication PMC11018795, “The regulatory relationship between NAMPT and PD-L1 in cancer and identification of a dual-targeting inhibitor” (EMBO Molecular Medicine, 2024)
# Several values for one entry are separate records, joined by “and”; a condition that tells them apart may be missing. Identical values can stand only once. Like-named read-outs stand apart in the source and are kept apart here.
# Experiments:
# [1] = system: NAD+ content of LLC cells; assay: NAD+ content in LLC cells with or without T cells; assay type: cell-based, mouse; parameters: unit not given here
# Experimental: (§1) NAD^+ assays were performed to quantify the total NAD^+ content. NAD^+ assay was performed using the NAD/NADH Assay Kit (ab65348; Abcam) according to the manufacturer’s recommended protocol.
# [2] = system: NAD+ content of A549 KO HIF-1α cells; assay: NAD+ content, A549 KO HIF-1α cells with or without PBMC; assay type: cell-based, human; parameters: unit not given here
# Experimental: as §1
# [3] = system: pyruvate content of A549 cells; assay: Pyruvate (PA) content, A549 cells with or without PBMC; assay type: cell-based, human; parameters: unit not given beside the values
# Excerpt: Supplement 44321_2024_51_MOESM3_ESM.zip/Fig-2-K-PA.xlsx, sheet "Sheet1" | column: A549
# [4] = system: pyruvate content of LLC cells; assay: Pyruvate (PA) content in LLC cells with or without T cells; assay type: cell-based, mouse; parameters: unit not given beside the values
# Excerpt: Supplement 44321_2024_51_MOESM3_ESM.zip/Fig-2-G.xlsx, sheet "Sheet1" | column: "-T cells; "+T cells
# [5] = system: glycolytic genes in A549 KO HIF-1α cells; assay: RT-PCR of glycolytic genes, A549 KO HIF-1α cells co-cultured with PBMC; assay type: cell-based, human; details: A549 KO HIF-1α co-cultured with PBMC
# Experimental: (§2) Total RNA was isolated using TRIzol reagent (Invitrogen, 15596026) according to the manufacturer's protocol. First-strand cDNA synthesis was performed using a RevertAid First Strand cDNA Synthesis Kit (Thermo Fisher, […]). Quantitative real-time PCR analysis was performed by mixing 10 μl SYBR, 0.4 μM forward primer, 0.4 μM reverse primer, 1 μl cDNA, and 8.2 μl distilled water per sample with Top Green qPCR SuperMix (Transgene, AQ601-04) by the manufacturer's protocols. GAPDH was used as an endogenous control. All qRT-PCRs were set up in triplicate using three biological replicates for each sample. Primer information is shown in Appendix Table S1.
# [6] = system: glycolytic genes in A549 cells; assay: RT-PCR of glycolytic genes, A549 cells co-cultured with PBMC; assay type: cell-based, human; parameters: key to Aldoa mRNA level / Eno1 mRNA level / HK2 mRNA level / Glut1 mRNA level: relative mRNA level normalized to GAPDH (endogenous control)
# Experimental: as §2
# [7] = system: NAD+ content of A549 cells; assay: NAD+ content, A549 cells with or without PBMC; assay type: cell-based, human; parameters: unit not given here
# Experimental: as §1
# [8] = system: pyruvate content of A549 KO HIF-1α cells; assay: Pyruvate (PA) content, A549 KO HIF-1α cells with or without PBMC; assay type: cell-based, human; parameters: unit not given beside the values
# Excerpt: Supplement 44321_2024_51_MOESM3_ESM.zip/Fig-2-K-PA.xlsx, sheet "Sheet1" | column: A549 KO HIF-1α
# [9] = system: IFN-γ and TNF-α secretion, LLC cells co-cultured with T cells; assay: ELISA of IFN-γ and TNF-α, LLC cells under co-culture condition; assay type: cell-based, mouse; parameters: unit not given here; details: in vitro
# [10] = system: glycolytic genes in LLC cells; assay: RT-PCR of glycolytic genes in LLC cells with or without T cells; assay type: cell-based, mouse; parameters: key to HK2 mRNA level / Glut1 mRNA level / Aldoa mRNA level / Eno1 mRNA level: relative mRNA level normalized to GAPDH (endogenous control)
# Experimental: as §2
# [11] = system: IFN-γ and TNF-α in LLC OE NAMPT/PD-L1 tumor tissues; assay: ELISA of IFN-γ and TNF-α in tumor tissues of LLC OE NAMPT/PD-L1 mouse model; parameters: unit not given here; details: in vivo, tumor tissue, CQ-85 20 mg/kg
# [12] = system: LLC OE NAMPT/PD-L1 tumors; assay: LLC OE NAMPT/PD-L1 tumor-bearing C57BL/6 mice; assay type: in vivo, mouse; details: 20 mg/kg i.p.; 14 days; Fig 7B
# [13] = system: NAMPT expression in LLC OE NAMPT/PD-L1 tumors; assay: NAMPT protein expression in LLC constructed xenograft model; assay type: in vivo, mouse; details: CQ-85 20 mg/kg vs control group
structure (smiles),measurement,setting,value
COc1nc(OCc2cccc(-c3ccccc3)c2C)ccc1CNCCNC(C)=O [BMS202],content of NAD+,"[1]; taken as +T cells by analogy with Fig 2G, listed as BM202",6.047 and 6.219 and 6.464
same,content of NAD+,"[1]; taken as -T cells by analogy with Fig 2G, listed as BM202",11.761 and 12.9475 and 11.7876
same,content of NAD+,"[2]; +PBMC, listed as BM202",10.2853 and 11.0822 and 11.211
same,content of NAD+,"[2]; -PBMC, listed as BM202",12.9598 and 12.8438 and 11.842
same,content of pyruvate (PA),"[3]; +PBMC, listed as BM202",0.2451 and 0.2361 and 0.2328
same,content of pyruvate (PA),"[3]; -PBMC, listed as BM202",0.1485 and 0.1357 and 0.1294
same,content of pyruvate (PA),"[4]; +T Cells, listed as B202",0.5383 and 0.5346 and 0.5309
same,content of pyruvate (PA),"[4]; -T Cells, listed as B202",0.3322 and 0.3345 and 0.3513
same,Aldoa mRNA level,[5]; listed as B202,0.4841 and 0.4127 and 0.7087
same,Eno1 mRNA level,[5]; listed as B202,0.9159 and 1.082 and 0.8085
same,HK2 mRNA level,[5]; listed as B202,0.02498 and 0.01465 and 0.021
same,Pfk1 mRNA level,[5]; listed as B202,0.7631 and 0.9395 and 1
same,Aldoa mRNA level,[6]; listed as B202,1.286 and 1.53 and 1.628
same,Eno1 mRNA level,[6]; listed as B202,1.184 and 1.457 and 1.192
same,Glut1 mRNA level,[6]; listed as B202,1.195 and 1.4406 and 1.289
same,HK2 mRNA level,[6]; listed as B202,4.691 and 5.816 and 5.352
same,Pfk1 mRNA level,[6]; listed as B202,1.211 and 0.6057
same,content of NAD+,"[7]; +PBMC, listed as BM202",8.982 and 8.901 and 8.955
same,content of NAD+,"[7]; -PBMC, listed as BM202",11.875 and 11.7227 and 11.9827
same,content of pyruvate (PA),"[8]; +PBMC, listed as BM202",0.1117 and 0.1102 and 0.1239
same,content of pyruvate (PA),"[8]; -PBMC, listed as BM202",0.09589 and 0.0979 and 0.1044
same,IFN-γ (ELISA),[9]; listed as B202,155.867 and 141.57 and 156.336
same,TNF-α (ELISA),[9]; listed as B202,199.656 and 157.29 and 212.022
same,Eno1 mRNA level,"[10]; +T Cells, listed as B202",3.494 and 3.959 and 2.858
same,HK2 mRNA level,"[10]; +T Cells, listed as B202",2.644 and 2.833 and 1.744
same,Pfk1 mRNA level,"[10]; +T Cells, listed as B202",5.686 and 6.904
same,Aldoa mRNA level,"[10]; -T Cells, listed as B202",0.06048 and 0.109 and 0.06804
same,Eno1 mRNA level,"[10]; -T Cells, listed as B202",0.7778 and 1.3449 and 0.7359
same,Glut1 mRNA level,"[10]; -T Cells, listed as B202",0.3392 and 0.2003 and 0.2483
same,HK2 mRNA level,"[10]; -T Cells, listed as B202",1.261 and 1.177 and 0.9693
O=C(c1ncc(CNC2CCOCC2)s1)N1CCc2c(-c3ccc4c(c3)OCCO4)cccc21 [CQ-85],content of NAD+,[1]; taken as +T cells by analogy with Fig 2G,6.631 and 6.489 and 6.614
same,content of NAD+,[1]; taken as -T cells by analogy with Fig 2G,10.4157 and 11.1416 and 12.0617
same,content of NAD+,[2]; +PBMC,10.9402 and 9.994 and 10.0633
same,content of NAD+,[2]; -PBMC,11.853 and 11.7415 and 11.8655
same,content of pyruvate (PA),[3]; +PBMC,0.2271 and 0.2241 and 0.2316
same,content of pyruvate (PA),[3]; -PBMC,0.1159 and 0.1109 and 0.1297
same,content of pyruvate (PA),[4]; +T Cells,0.4897 and 0.4757 and 0.4584
same,content of pyruvate (PA),[4]; -T Cells,0.334 and 0.378 and 0.3588
same,Aldoa mRNA level,[5],0.8971 and 0.8909 and 1.1434
same,Eno1 mRNA level,[5],0.7363 and 0.9515 and 0.8284
same,Pfk1 mRNA level,[5],0.9428 and 1.091 and 0.7397
same,IFN-γ (ELISA),[11],32.0391 and 39.4609 and 37.7422 and 48.3828
same,TNF-α (ELISA),[11],49.9785 and 53.7419 and 61.1613 and 63.957
same,TIR / tumor growth inhibition (TGI) rate at endpoint,[12],45.36%
same,Aldoa mRNA level,[6],0.8847 and 0.8971 and 0.9885
same,Eno1 mRNA level,[6],1.112 and 1.398 and 1.35
same,Glut1 mRNA level,[6],2.253 and 2.993 and 2.146
same,HK2 mRNA level,[6],5.011 and 5.445 and 5.877
same,Pfk1 mRNA level,[6],1.666 and 1.544 and 1.005
same,content of NAD+,[7]; +PBMC,9.197 and 8.685 and 8.9355
same,content of NAD+,[7]; -PBMC,11.8739 and 12.9843 and 12.9544
same,content of pyruvate (PA),[8]; +PBMC,0.1029 and 0.09765 and 0.1064
same,content of pyruvate (PA),[8]; -PBMC,0.08688 and 0.08738 and 0.09664
same,IFN-γ (ELISA),[9],156.023 and 118.367 and 126.961
same,TNF-α (ELISA),[9],198.796 and 198.903 and 183.742
same,effect on NAMPT protein expression,[13],upregulate the protein expression of NAMPT
same,Aldoa mRNA level,[10]; +T Cells,3.122 and 3.144 and 2.933
same,Eno1 mRNA level,[10]; +T Cells,1.63 and 2.181 and 1.51
same,HK2 mRNA level,[10]; +T Cells,1.976 and 1.225 and 1.397
same,Pfk1 mRNA level,[10]; +T Cells,4.524 and 5.686 and 6.18
same,Aldoa mRNA level,[10]; -T Cells,0.1409 and 0.1113 and 0.07549
same,Eno1 mRNA level,[10]; -T Cells,1.412 and 1.0924 and 0.8165
same,Glut1 mRNA level,[10]; -T Cells,0.4601 and 0.3164 and 0.3635
same,HK2 mRNA level,[10]; -T Cells,1.925 and 1.641 and 1.032
